Measurements taken from patent US10426773B2, “Systems pharmacology for treating ocular disorders” (Case Western Reserve Univeristy, priority 2011, dated 2019).
Counter-ions that a name gives are not always drawn.

Legend:
Abca4−/−Rdh8−/− mice [1] = experiment: Bright light-induced retinal degeneration in Abca4−/−Rdh8−/− mice, retinal histology and immunohistochemistry; format: in vivo, mouse; settings: pretreatment before light 10,000 lux 30 min; 7-10 days after light exposure
Protocol: Retinal histology and immunohistochemistry (IHC) was performed as previously described. Briefly, eye cups free of cornea, lens and vitreous body were fixed in 2% glutaraldehyde/4% paraformaldehyde and processed for Epon embedding. Sections 1 am thick were cut and stained with toluidine blue for histological examination under a light microscope. IHC analysis was performed on 12 am thick cryosections prepared from 4% paraformaldehyde-fixed eye cups. Collected cryosections were subjected to examination for rhodopsin, PNA and DAPI expression.
Retinal immunohistochemistry (IHC) was carried out as previously described. Briefly, eyes were enucleated and eye cups were made to eliminate cornea, lens and vitreous body and fixed in 4% paraformaldehyde and processed for cryosectioning. 12 am thick cryosections were collected cryosections and subjected to examination for rhodopsin, peanut agglutinin lectin (PNA) and DAPI expression.
Retinal immunohistochemistry (IHC) was performed as previously described. Briefly, eyes were enucleated and, after removal of the cornea, lens and vitreous body, eye cups were fixed in 4% paraformaldehyde and processed for cryosectioning. Twelve μm thick cryosections were cut, collected and examined for rhodopsin expression, peanut agglutinin lectin (PNA) for cone sheath and nuclear DAPI staining. […]

Abca4−/−Rdh8−/− mice [2] = experiment: Bright light-induced retinal degeneration in Abca4−/−Rdh8−/− mice, SLO autofluorescence imaging; format: in vivo, mouse; settings: pretreatment before light 10,000 lux 30 min; SLO 8-9 days after light exposure
Protocol: SLO (Heidelberg Engineering, Heidelberg, Germany) was carried out for whole fundus imaging of mouse retinas. Mice were anesthetized by intraperitoneal injection of anesthetic cocktail indicated above, which was followed by pupil dilation using 1% tropicamide prior to SLO imaging under autofluorescence mode.
SLO (Heidelberg Engineering) was carried out for in vivo whole fundus imaging of mouse retinas. […] Numbers of autofluorescent spots were counted and subjected to statistical analyses as described below.
SLO (Heidelberg Engineering) was carried out for whole fundus imaging of mouse retinas in vivo. Mice were anesthetized, and their pupils were dilated as described above. SLO images were then acquired in the autofluorescence mode.

[3] = molecular target: T1, Dopamine D1 receptor (D1R) (Homo sapiens, UniProt P21728); experiment: BRET assay for G protein activation in live cells, D1R-Gs; format: cell-based; settings: for antagonistic activity on D1R (inhibition of BRET signal): preincubation with ligand, then 1 μM dopamine
T1 construct: host or cells: HEK293T/17
Excerpt: (§1) FIGS. 35(A-C) illustrate characterizing the activity of BRM, MTP, DOX, and TAM on dopamine and adrenaline receptors (A) Schematic representation of the BRET assay used to evaluate actions of drugs on selected GPCRs. […] The free Venus-Gβγ then interacts with the Gβγ-effector mimetic masGRK3ct-Nluc to produce the BRET signal. GDP, guanosine diphosphate; GRK, G protein-coupled receptor kinase; Nluc, nanoluciferase. (B) Left: Representative BRET signal traces recorded upon activation of D4R with indicated drugs in cells expressing Gαo and Venus-Gβγ, illustrating the agonism assay. Right: Representative traces of D2R responses to 1 μM dopamine in the absence (control) or presence of indicated drugs, illustrating antagonism assay. Note that, in the antagonism assay shown, the black trace overlaps with the red trace and therefore is not visible. (C) Top: Quantification of agonistic activity of ligands on D2R, D4R, D1R, and ADRA1A. D2R-GO, D4R-GO, D1R-Gs, and ADRA1A-Gq signaling were reconstituted in HEK293T/17 cells by transient transfection separately. Maximum amplitudes induced by dopamine (DA; 100 μM), noradrenaline (NA; 100 μM), BRM (25 μM), MTP (100 μM), DOX (50 μM), and TAM (100 μM) were plotted as bar graphs. […] The activity is plotted as percent inhibition. Data are means±SD. Results are representative of two independent experiments each performed with 12 replicates.
(§2) Dopamine D1, dopamine D4, and α1A-adrenergic receptors were purchased from cDNA Resource Center (Bloomsburg University, Bloomsburg, Pa.). Plasmid encoding the Flag-tagged, long isoform of the D2 dopamine receptor was a gift from A. Kovoor (University of Rhode Island). pCMV5 plasmids encoding GαoA were gifts from H. Itoh (Nara Institute of Science and Technology, Japan). Plasmids encoding Venus 156-239-Gβ1 and Venus 1-155-Gγ2 were gifts from N. Lambert (Georgia Regents University). Plasmids encoding RGS9-2, Gβ5S, R7BP, and masGRK3ct-Nluc were previously described.
(§3) BRET experiments were performed as previously reported with slight modifications. […] BRET measurements were performed using a microplate reader (POLARstar Omega, BMG Labtech) equipped with two emission photomultiplier tubes. […] The BRET signal is determined by calculating the ratio of the light emitted by Gβ1γ2-Venus (535 nm) over the light emitted by masGRK3ct-Nluc (475 nm). The average baseline value recorded before agonist stimulation was subtracted from BRET signal values, and the resulting difference (ABRET ratio) was obtained.
(§4) We used a real-time kinetic assay in which G protein activation by GPCRs is quantified by monitoring changes in the bioluminescence resonance energy transfer (BRET) signal between Venus-tagged Gβγ and its luciferase-tagged reporter in living cells (FIG. 35A). […]

[4] = molecular target: T2, α1A-adrenergic receptor (ADRA1A) (Homo sapiens, UniProt P35348); experiment: BRET assay for G protein activation in live cells, ADRA1A-Gq; format: cell-based; settings: for antagonistic activity on ADRA1A (inhibition of BRET signal): preincubation with ligand, then 1 μM noradrenaline
T2 construct: host or cells: HEK293T/17
T2 sequence (P35348 1-466): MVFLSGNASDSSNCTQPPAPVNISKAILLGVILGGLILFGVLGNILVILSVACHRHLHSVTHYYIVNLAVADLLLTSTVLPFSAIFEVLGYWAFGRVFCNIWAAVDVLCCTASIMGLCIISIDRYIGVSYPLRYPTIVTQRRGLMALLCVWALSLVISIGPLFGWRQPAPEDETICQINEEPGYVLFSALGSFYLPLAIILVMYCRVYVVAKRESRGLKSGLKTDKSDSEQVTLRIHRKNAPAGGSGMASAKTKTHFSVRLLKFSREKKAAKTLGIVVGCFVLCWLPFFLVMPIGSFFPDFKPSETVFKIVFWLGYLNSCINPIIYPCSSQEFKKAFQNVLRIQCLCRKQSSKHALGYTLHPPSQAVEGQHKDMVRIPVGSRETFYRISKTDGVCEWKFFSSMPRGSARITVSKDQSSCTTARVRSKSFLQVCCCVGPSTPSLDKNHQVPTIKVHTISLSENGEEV
Excerpt: as §1, §2, §3, §4

[5] = tested on: retinal transcriptome of Abca4−/−Rdh8−/− mice; experiment: RNA-seq retinal transcriptome of pretreated, light-exposed Abca4−/−Rdh8−/− mice (differential expression, Pearson, GSEA); format: in vivo, mouse; settings: for NES, CHEMOKINE SIGNALING gene set / NES, CYTOKINE- RECEPTOR INTERACTIO gene set / NES, P53 gene set / NES, TOLL-LIKE SIGNALING gene set / NES, APOPTOSIS gene set: GSEA, vehicle-treated light-exposed retinas against drug-treated; for NES, APOPTOSIS gene set: P in brackets not reported here; for number of light-up-regulated gene sets significantly down-regulated (GSEA): of 44 gene sets up-regulated by light, mono doses BRM 1, MTP 10, TAM 2.5, DOX 10 mg/kg bw
[6] = HEK293T/17 cells, BRM 25 μM, MTP 100 μM, DOX 50 μM, TAM 100 μM

T1 sequence (P21728 whole entry): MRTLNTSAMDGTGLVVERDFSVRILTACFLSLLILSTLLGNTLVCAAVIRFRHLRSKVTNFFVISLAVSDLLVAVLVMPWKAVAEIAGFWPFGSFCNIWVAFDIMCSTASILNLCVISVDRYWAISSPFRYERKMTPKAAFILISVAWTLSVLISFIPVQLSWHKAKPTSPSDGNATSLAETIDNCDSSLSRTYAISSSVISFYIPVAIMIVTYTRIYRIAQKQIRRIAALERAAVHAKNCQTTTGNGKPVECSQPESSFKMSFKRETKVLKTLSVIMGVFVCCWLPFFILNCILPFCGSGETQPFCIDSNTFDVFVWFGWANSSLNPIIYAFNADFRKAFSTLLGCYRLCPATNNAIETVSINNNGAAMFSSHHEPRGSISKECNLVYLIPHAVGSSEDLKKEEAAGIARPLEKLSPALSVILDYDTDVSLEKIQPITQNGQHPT

Row | Compound | retinal histology / immunohistochemistry (rhodopsin, PNA, DAPI; ONL) (Abca4−/−Rdh8−/− mice [1]) | retinal autofluorescence spots by SLO imaging (Abca4−/−Rdh8−/− mice [2]) | antagonistic activity on D1R (inhibition of BRET signal) [3] | antagonistic activity on ADRA1A (inhibition of BRET signal) [4] | NES, CHEMOKINE SIGNALING gene set [5] | NES, CYTOKINE- RECEPTOR INTERACTIO gene set [5] | NES, P53 gene set [5] | NES, TOLL-LIKE SIGNALING gene set [5] | NES, APOPTOSIS gene set [5] | number of light-up-regulated gene sets significantly down-regulated (GSEA) [5] [gene sets] | agonistic activity on D1R (BRET signal) [3, 6] | agonistic activity on ADRA1A (BRET signal) [4, 6] | preservation of retinal gene expression pattern (in words) ([5]; retinas 1 day after light exposure)
1 | COc1cc2nc(N3CCN(C(=O)C4COc5ccccc5O4)CC3)nc(N)c2cc1OC.CS(=O)(=O)O (stereo not drawn) [Doxazosin] | substantially preserved photoreceptor morphology | significantly protected retinas from developing light-induced damage | partial antagonistic effect | full antagonist | 1.41 | 2.42 | 2.18 | 1.99 | 1.75 | 28 | – | – | –
2 | COCCc1ccc(OCC(O)CNC(C)C)cc1 (stereo not drawn) [MTP, metoprolol tartrate] | preservation of the ONL and photoreceptor cells | lacked these autofluorescent spots | no agonistic or antagonistic effects | no agonistic or antagonistic effects | 1.44 | 2.30 | 2.04 | 2.05 | 1.61 | 36 | no agonistic or antagonistic effects | no agonistic or antagonistic effects | conferred the most protection
3 | CCOc1ccccc1OCCN[C@H](C)Cc1ccc(OC)c(S(N)(=O)=O)c1.Cl [Tamsulosin] | substantially preserved photoreceptor morphology | significantly protected retinas from developing light-induced damage | partial antagonist | antagonistic activity | 1.39 | 2.29 | 1.98 | 1.83 | 1.60 | 32 | – | – | –
